Test results reported in publication PMC10700596 (Nature Communications, 2023).
“And” between values parts separate entries of the source, which are not always exact repeats. Identical values can stand only once. “Also recorded” adds a separate entry of the source.

Experiments:
[1] = target: T1, JAK2(JH1domain-catalytic) (Homo sapiens, UniProt O60674); assay: KINOMEscan; type: binding
T1 construct: JAK2(JH1domain-catalytic); purchased Eurofins DiscoverX KINOMEscan (scanEDGE, 97 kinases)

PPARγ = target: T2, PPARγ (Homo sapiens, UniProt P37231); assay: PPARγ agonist/antagonist assay (Eurofins item G124); type: biochemical
T2 construct: purchased Eurofins item G124
From the text: (§1) . […] This panel includes several adverse drug reaction receptors such as the serotonin receptor 5HT2b, M1 and M2 muscarinic receptors and adrenergic receptors. […]. page 7:
(§2) Supplementary Figure 7: Non-GPCR off-target screening for 74. a)-e) Dose-response curves of 74 at […]
(§3) proliferator-activated receptor gamma (PPARγ, Eurofins item G124). Data in a)-e) and g)-i) represent two technical replicates. Source data are provided as a Source Data file.
(§4) (1 picture or pasted object on this page, not shown here)

AURKA = AURKA (Homo sapiens, UniProt O14965); assay: biochemical; type: binding; conditions: 10000 nM; read-out: Percent Control
97 human kinases = type: binding; conditions: 10 µM
From the text: as §1, §2, §3, §4
Description of Additional Supplementary Files
File Name: Supplementary Data 1
Description: List of all compounds described in this work.
For each compound, the compound number, the virtual library code (ZINC / Design ID), the Enamine catalog code (Enamine catalog ID), 2D information (SMILES) and a brief description whether the compound was derived from virtual screening or optimization of initial hits (Set) are provided. For virtual screening compounds, the displacement of radiolabeled 3HPGE2 at 10 µM in the initial binding assay at […]
For hit compounds, logIC50, IC50 and Ki in the EP4R PRESTO-Tango or EP4R Arrestin-BRET assays are shown. For lead compounds, the Kb in the EP4R cAMP Assay and Ki from the EP4R radioligand displacement assay are listed.
File Name: Supplementary Data 2
Description: Off-target screening of compound 74 against a panel of 97 human kinases (KINOMEscan, […]

SNARK = SNARK (Homo sapiens, UniProt Q9H093); assay: biochemical; type: binding; conditions: 10000 nM; read-out: Percent Control
COX-2 = target: T3, COX-2 (Homo sapiens, UniProt P35354); assay: COX-2 inhibition (Eurofins item 4186); type: biochemical
T3 construct: purchased Eurofins item 4186
From the text: as §1, §2, §3, §4

EPHA2 = EPHA2 (Homo sapiens, UniProt P29317); assay: biochemical; type: binding; conditions: 10000 nM; read-out: Percent Control
[2] = target: T4, RSK2(Kin.Dom.1-N-terminal) (Homo sapiens, UniProt P51812); assay: KINOMEscan; type: binding
T4 construct: RSK2(Kin.Dom.1-N-terminal); purchased Eurofins DiscoverX KINOMEscan (scanEDGE, 97 kinases)

ALK = ALK (Homo sapiens, UniProt Q9UM73); assay: biochemical; type: binding; conditions: 10000 nM; read-out: Percent Control
TIE2 = TIE2 (Homo sapiens, UniProt Q02763); assay: biochemical; type: binding; conditions: 10000 nM; read-out: Percent Control
JNK3 = JNK3 (Homo sapiens, UniProt P53779); assay: biochemical; type: binding; conditions: 10000 nM; read-out: Percent Control
BRAF(V600E) = BRAF(V600E) (Homo sapiens, UniProt P15056, V600E); assay: biochemical; type: binding; conditions: 10000 nM; read-out: Percent Control
ABL1-nonphosphorylated = ABL1-nonphosphorylated (Homo sapiens, UniProt P00519); assay: biochemical; type: binding; conditions: 10000 nM; read-out: Percent Control
[3] = target: T5, Thromboxane A2 (TP) receptor (Homo sapiens, UniProt P21731); assay: Functional cAMP production assay, TP receptor; type: cell-based
T5 sequence (P21731 1-343): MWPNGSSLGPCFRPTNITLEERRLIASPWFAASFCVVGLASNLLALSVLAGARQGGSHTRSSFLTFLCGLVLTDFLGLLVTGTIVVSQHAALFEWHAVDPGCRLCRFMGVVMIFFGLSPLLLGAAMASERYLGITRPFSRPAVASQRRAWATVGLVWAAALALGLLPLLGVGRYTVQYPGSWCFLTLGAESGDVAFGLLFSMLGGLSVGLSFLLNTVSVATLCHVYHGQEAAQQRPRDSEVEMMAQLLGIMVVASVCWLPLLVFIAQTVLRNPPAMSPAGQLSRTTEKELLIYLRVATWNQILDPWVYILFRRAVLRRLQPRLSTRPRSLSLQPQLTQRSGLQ

JNK2 = JNK2 (Homo sapiens, UniProt P45984); assay: biochemical; type: binding; conditions: 10000 nM; read-out: Percent Control
[4] = target: T6, JAK3(JH1domain-catalytic) (Homo sapiens, UniProt P52333); assay: KINOMEscan; type: binding
T6 construct: JAK3(JH1domain-catalytic); purchased Eurofins DiscoverX KINOMEscan (scanEDGE, 97 kinases)

CSF1R = CSF1R (Homo sapiens, UniProt P07333); assay: biochemical; type: binding; conditions: 10000 nM; read-out: Percent Control
ERBB4 = ERBB4 (Homo sapiens, UniProt Q15303); assay: biochemical; type: binding; conditions: 10000 nM; read-out: Percent Control
mice = type: in vivo
[5] = cited from earlier work
[6] = 10000 nM, read-out: Percent Control

T1 sequence (O60674 810-1132 limits assumed): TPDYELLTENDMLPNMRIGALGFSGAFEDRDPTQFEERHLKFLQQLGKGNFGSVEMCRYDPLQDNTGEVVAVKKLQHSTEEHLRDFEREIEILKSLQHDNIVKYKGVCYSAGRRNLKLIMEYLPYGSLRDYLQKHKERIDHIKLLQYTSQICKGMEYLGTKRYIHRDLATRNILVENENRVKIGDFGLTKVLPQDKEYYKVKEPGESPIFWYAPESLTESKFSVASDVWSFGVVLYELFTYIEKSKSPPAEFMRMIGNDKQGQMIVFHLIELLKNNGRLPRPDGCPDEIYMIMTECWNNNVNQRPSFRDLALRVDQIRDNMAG
T3 sequence (P35354 18-604): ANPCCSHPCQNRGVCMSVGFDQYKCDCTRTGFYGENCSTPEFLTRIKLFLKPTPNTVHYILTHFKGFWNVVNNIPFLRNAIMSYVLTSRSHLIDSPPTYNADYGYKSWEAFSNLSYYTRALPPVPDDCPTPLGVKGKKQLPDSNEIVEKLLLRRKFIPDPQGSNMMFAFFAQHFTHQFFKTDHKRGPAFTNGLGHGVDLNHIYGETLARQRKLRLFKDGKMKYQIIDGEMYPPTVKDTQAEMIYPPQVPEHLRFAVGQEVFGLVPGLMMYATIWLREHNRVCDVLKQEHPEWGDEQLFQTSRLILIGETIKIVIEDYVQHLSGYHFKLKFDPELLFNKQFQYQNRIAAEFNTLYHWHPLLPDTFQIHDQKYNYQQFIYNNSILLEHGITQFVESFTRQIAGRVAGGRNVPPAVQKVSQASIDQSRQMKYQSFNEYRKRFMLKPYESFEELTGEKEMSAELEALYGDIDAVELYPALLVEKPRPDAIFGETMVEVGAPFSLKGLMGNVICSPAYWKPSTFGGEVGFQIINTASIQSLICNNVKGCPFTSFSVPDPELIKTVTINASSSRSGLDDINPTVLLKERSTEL
T6 sequence (P52333 782-1124 limits assumed): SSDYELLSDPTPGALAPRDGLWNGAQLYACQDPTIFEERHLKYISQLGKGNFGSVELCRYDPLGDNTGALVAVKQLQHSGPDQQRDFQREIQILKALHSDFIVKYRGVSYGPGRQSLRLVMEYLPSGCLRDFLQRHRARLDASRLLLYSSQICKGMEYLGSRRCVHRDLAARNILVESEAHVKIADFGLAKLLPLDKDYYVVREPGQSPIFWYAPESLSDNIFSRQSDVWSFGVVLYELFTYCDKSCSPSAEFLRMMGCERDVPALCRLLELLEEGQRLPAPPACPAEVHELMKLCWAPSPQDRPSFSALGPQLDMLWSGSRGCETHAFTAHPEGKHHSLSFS
T4 sequence (P51812 1-397 limits assumed): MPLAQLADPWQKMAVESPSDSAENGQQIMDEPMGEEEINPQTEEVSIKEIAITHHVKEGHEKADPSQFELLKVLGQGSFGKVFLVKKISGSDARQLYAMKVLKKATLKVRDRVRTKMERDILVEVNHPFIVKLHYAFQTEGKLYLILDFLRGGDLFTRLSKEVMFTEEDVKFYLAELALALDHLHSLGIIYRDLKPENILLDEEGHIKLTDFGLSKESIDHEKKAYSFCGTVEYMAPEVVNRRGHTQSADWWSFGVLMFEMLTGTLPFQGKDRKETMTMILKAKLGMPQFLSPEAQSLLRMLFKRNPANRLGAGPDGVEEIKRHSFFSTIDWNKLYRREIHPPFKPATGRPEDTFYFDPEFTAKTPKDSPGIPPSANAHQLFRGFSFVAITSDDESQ
T2 sequence (P37231 whole entry, species assumed): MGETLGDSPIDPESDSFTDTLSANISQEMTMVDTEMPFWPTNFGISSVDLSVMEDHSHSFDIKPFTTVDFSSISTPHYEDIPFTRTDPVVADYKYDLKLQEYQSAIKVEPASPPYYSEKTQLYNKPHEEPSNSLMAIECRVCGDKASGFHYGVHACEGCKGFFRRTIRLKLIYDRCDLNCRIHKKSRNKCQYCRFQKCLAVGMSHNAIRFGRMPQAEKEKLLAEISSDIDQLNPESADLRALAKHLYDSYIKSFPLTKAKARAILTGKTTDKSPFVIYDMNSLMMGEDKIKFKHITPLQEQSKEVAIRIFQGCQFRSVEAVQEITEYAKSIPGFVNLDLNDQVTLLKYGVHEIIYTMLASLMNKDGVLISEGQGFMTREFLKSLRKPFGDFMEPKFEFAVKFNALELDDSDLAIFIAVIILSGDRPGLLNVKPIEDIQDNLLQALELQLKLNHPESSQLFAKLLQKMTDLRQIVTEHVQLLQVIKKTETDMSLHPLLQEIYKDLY
Chain of AURKA (O14965 whole entry): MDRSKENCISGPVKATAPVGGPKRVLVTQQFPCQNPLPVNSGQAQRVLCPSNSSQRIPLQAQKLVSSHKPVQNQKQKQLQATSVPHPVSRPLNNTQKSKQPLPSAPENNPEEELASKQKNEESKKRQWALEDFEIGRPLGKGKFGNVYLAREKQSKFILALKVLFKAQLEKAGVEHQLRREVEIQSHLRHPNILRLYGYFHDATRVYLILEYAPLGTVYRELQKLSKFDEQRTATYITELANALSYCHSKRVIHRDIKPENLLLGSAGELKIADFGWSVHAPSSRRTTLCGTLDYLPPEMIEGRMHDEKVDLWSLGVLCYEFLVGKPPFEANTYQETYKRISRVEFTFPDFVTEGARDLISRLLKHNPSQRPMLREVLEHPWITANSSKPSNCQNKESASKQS
Chain of EPHA2 (P29317 24-976): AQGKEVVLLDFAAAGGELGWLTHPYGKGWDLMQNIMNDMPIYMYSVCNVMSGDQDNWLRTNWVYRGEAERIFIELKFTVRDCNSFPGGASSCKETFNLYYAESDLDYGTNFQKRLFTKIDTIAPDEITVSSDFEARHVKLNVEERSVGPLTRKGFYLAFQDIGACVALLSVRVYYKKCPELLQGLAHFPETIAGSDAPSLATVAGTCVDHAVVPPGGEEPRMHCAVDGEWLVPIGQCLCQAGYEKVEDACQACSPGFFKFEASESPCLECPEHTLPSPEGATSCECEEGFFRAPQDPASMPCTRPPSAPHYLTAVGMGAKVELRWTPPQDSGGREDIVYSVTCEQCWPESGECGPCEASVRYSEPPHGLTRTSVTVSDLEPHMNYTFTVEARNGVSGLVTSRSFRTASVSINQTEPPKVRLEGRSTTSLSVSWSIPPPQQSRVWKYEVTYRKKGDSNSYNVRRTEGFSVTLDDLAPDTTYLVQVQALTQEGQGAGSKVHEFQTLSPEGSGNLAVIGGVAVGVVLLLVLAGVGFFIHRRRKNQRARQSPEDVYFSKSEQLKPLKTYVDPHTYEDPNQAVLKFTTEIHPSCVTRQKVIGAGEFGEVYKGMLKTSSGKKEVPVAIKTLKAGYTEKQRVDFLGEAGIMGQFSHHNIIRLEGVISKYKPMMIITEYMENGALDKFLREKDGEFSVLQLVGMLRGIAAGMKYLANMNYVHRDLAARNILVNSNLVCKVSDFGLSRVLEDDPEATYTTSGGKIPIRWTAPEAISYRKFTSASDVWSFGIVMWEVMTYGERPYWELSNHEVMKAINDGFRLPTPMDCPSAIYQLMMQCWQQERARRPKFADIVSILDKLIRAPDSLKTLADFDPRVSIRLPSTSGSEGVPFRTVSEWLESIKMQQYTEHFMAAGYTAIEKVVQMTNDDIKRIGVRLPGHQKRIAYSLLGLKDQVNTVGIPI
Chain of CSF1R (P07333 20-972): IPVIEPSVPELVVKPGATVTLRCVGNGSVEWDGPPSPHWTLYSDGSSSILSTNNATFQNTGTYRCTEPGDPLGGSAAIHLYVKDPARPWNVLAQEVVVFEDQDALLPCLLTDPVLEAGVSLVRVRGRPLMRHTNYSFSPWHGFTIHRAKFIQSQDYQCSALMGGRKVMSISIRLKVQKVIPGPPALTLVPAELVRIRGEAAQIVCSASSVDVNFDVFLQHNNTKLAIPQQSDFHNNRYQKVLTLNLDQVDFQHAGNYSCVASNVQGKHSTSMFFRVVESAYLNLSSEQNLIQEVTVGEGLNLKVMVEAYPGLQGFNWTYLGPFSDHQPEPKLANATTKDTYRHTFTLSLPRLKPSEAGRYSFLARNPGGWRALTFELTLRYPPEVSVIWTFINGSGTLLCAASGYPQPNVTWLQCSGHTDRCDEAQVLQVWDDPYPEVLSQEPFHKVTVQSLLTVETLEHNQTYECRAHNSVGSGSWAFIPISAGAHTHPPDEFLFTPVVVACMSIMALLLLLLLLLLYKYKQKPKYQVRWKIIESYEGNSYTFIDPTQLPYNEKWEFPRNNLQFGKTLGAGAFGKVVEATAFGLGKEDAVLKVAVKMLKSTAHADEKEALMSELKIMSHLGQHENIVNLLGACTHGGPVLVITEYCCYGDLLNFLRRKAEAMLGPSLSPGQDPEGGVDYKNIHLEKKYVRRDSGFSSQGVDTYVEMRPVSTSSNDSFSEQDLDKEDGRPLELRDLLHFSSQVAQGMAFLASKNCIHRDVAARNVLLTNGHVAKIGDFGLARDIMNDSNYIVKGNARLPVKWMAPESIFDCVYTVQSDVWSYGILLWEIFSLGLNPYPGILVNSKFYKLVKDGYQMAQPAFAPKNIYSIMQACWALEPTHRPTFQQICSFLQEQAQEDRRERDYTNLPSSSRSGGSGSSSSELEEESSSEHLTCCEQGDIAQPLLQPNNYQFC
Chain of JNK2 (P45984 whole entry): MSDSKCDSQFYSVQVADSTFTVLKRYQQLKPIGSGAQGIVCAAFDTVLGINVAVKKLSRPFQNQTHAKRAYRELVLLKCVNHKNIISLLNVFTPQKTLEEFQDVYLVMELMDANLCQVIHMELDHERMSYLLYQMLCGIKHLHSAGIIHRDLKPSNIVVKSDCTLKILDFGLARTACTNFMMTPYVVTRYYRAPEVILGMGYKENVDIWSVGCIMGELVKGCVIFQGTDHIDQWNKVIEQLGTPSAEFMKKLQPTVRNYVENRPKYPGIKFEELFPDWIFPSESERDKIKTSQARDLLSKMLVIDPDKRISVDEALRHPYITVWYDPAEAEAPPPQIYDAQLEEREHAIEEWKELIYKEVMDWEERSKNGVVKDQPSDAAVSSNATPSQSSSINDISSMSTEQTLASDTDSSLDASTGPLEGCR

O=C(O)C1CCC2(CC1)CC(Nc1ncnc3[nH]c4c(F)cccc4c13)C2 (centres unmarked) [Compound 74, OC(=O)C1CCC2(CC(C2)NC=3N=CN=C4NC=5C(F)=CC=CC5C34)CC1]
remaining binding at 10 µM [1, 6]: 0%
Signal (qPCR) ([1]; JAK2, [Compound] 0.001 nM): 2.42e-6 and 2.15e-6
Signal (qPCR) ([1]; JAK2, [Compound] 0.01 nM): 2.35e-6 and 2.44e-6
Signal (qPCR) ([1]; JAK2, [Compound] 0.169 nM): 2.62e-6 and 2.24e-6
Signal (qPCR) ([1]; JAK2, [Compound] 0.508 nM): 2.26e-6 and 2.31e-6
Signal (qPCR) ([1]; JAK2, [Compound] 1.52 nM): 2.56e-6 and 2.32e-6
Signal (qPCR) ([1]; JAK2, [Compound] 13.7 nM): 2.33e-6 and 2.17e-6
Signal (qPCR) ([1]; JAK2, [Compound] 41.2 nM): 2.15e-6 and 2.16e-6
Signal (qPCR) ([1]; JAK2, [Compound] 123 nM): 2.08e-6 and 2e-6
Signal (qPCR) ([1]; JAK2, [Compound] 370 nM): 1.2e-6
Signal (qPCR) ([1]; JAK2, [Compound] 3330 nM): 1.6e-7 and 1.8e-7
Signal (qPCR) ([1]; JAK2, [Compound] 10000 nM): 4e-8
agonist or antagonist activity at PPARγ (PPARγ): no agonist or antagonist activity
inhibitory activity against PPARγ (PPARγ; 3 µM): no inhibitory activity
remaining activity at 10 µM (AURKA): 22%
inhibition in kinase panel (97 human kinases): notable inhibition of five kinases
remaining activity at 10 µM (SNARK): 54%
inhibitory / off-target activity at COX-2 (COX-2; 3 µM): no off-target activity; also recorded: no inhibitory activity
%Inhibition of Control Values (COX-2; COX-2, 3 µM, technical replicates): -20.9% and -2.6%
remaining activity at 10 µM (EPHA2): 83%
remaining binding at 10 µM [2, 6]: 0.25%
Signal (qPCR) ([2]; RSK2, [Compound] 0.0001 nM): 4.94e-6 and 4.75e-6
Signal (qPCR) ([2]; RSK2, [Compound] 0.01 nM): 3.91e-6 and 4.73e-6
Signal (qPCR) ([2]; RSK2, [Compound] 0.169 nM): 4.25e-6 and 3.92e-6
Signal (qPCR) ([2]; RSK2, [Compound] 0.508 nM): 4.17e-6 and 4.75e-6
Signal (qPCR) ([2]; RSK2, [Compound] 1.52 nM): 4.57e-6 and 4.32e-6
Signal (qPCR) ([2]; RSK2, [Compound] 4.57 nM): 4.65e-6 and 4.1e-6
Signal (qPCR) ([2]; RSK2, [Compound] 13.7 nM): 3.9e-6 and 3.53e-6
Signal (qPCR) ([2]; RSK2, [Compound] 41.2 nM): 3.36e-6 and 3.55e-6
Signal (qPCR) ([2]; RSK2, [Compound] 123 nM): 3.09e-6 and 2.73e-6
Signal (qPCR) ([2]; RSK2, [Compound] 370 nM): 2.17e-6 and 2e-6
Signal (qPCR) ([2]; RSK2, [Compound] 3330 nM): 5.93e-7 and 5.31e-7
Signal (qPCR) ([2]; RSK2, [Compound] 10000 nM): 2.67e-7 and 3.25e-7
remaining activity at 10 µM (ALK): 14%
remaining activity at 10 µM (TIE2): 81%
remaining activity at 10 µM (JNK3): 40%
remaining activity at 10 µM (BRAF(V600E)): 84%
remaining activity at 10 µM (ABL1-nonphosphorylated): 67%
off-target activity at thromboxane A2 receptor [3]: no off-target activities
remaining activity at 10 µM (JNK2): 41%
remaining binding at 10 µM [4, 6]: 0.25%
Signal (qPCR) ([4]; JAK3, [Compound] 0.0001 nM): 1.3e-6 and 8.87e-7
Signal (qPCR) ([4]; JAK3, [Compound] 0.001 nM): 1.24e-6 and 1.2e-6
Signal (qPCR) ([4]; JAK3, [Compound] 0.01 nM): 1.37e-6 and 1.42e-6
Signal (qPCR) ([4]; JAK3, [Compound] 0.169 nM): 1.07e-6 and 1.21e-6
Signal (qPCR) ([4]; JAK3, [Compound] 0.508 nM): 1.06e-6 and 1.26e-6
Signal (qPCR) ([4]; JAK3, [Compound] 1.52 nM): 1.19e-6 and 1.38e-6
Signal (qPCR) ([4]; JAK3, [Compound] 4.57 nM): 1.36e-6 and 1.47e-6
Signal (qPCR) ([4]; JAK3, [Compound] 13.7 nM): 1.11e-6 and 1.19e-6
Signal (qPCR) ([4]; JAK3, [Compound] 41.2 nM): 1.18e-6 and 1.3e-6
Signal (qPCR) ([4]; JAK3, [Compound] 123 nM): 1.07e-6 and 1.06e-6
Signal (qPCR) ([4]; JAK3, [Compound] 370 nM): 8.09e-7 and 7.97e-7
Signal (qPCR) ([4]; JAK3, [Compound] 3330 nM): 1.07e-7
Signal (qPCR) ([4]; JAK3, [Compound] 10000 nM): 2.42e-8 and 3.31e-8
remaining activity at 10 µM (CSF1R): 69%
remaining activity at 10 µM (ERBB4): 99%

O=C([O-])C1CCC2(CC1)CC(Nc1ncnc3[nH]c4c(F)cccc4c13)C2.[Na+] (centres unmarked) [Compound 77, [Na+].[O-]C(=O)C1CCC2(CC(C2)NC=3N=CN=C4NC=5C(F)=CC=CC5C34)CC1]
PGE2-induced allodynia, mechanical threshold (von Frey) (mice; 30 mg/kg IP, 30 min before 10 µg intraplantar PGE2, individual animals): 121.3 and 118.3 and 44.9 and 101.1 and 46.9
effect on PGE2-induced mechanical hypersensitivity (mice; mouse, in vivo): dose-dependently prevented mechanical hypersensitivity; also recorded: dose-dependently reduces mechanical allodynia

CCc1nc2c(C)nc(C)cc2n1-c1ccc(CCNC(=O)NS(=O)(=O)c2ccc(C)cc2)cc1 [Grapiprant, reference compound]
reported oral bioavailability [5]: 5%
